Here are results for four compounds from US20250388593A1 (MITSUBISHI TANABE PHARMA CORPORATION, priority 2023, published 2025).

A short description of data set [1]: Stability against racemization (chiral HPLC). The data set is classed as physicochemical. As to the method:
Test Example 7: Stability Against Racemization Each test sample (1 mg) was dissolved in CH3CN (1 mL), and 0.1 M N-methylmorpholine aqueous solution (adjusted to pH 7.4 with 1N HCl) (1 mL) was added to dilute the solution twofold, thereby preparing a solution with a final concentration of 0.5 mg/mL. The sample was divided into nine portions of 150 μL each, and each portion was placed in a sampler set to 37° C. The enantiomers in the sample were quantified at 0, 1, 3, 6, 24, 48, 72, and 167 hours under the following HPLC conditions, and the enantiomeric excess (ee) at each time point was calculated.
As test samples, Example Compound 211-1 was used as an example, while (S)-thalidomide represented by the following formula
• Equipment: ACQUITY UPLC H-Class Waters • Column: […] IE-3 (3 μm, 4.6×150 mm) Daicel Corporation • Flow rate: 0.5 mL/min • Column temperature: 25° C.
• Mobile phase: 100% MeOH • Injection volume: 0.7 μL • Detection wavelength: 217.0 nm
• Mobile phase: 100% MeOH • Injection volume: 1.2 μL • Detection wavelength: 221.0 nm
• Mobile phase: EtOH/CH3CN=90/10 • Injection volume: 1.5 μL • Detection wavelength: 221.0 nm

A further data set addresses CRBN truncate (318-426) (Homo sapiens (Human), UniProt Q96SW2). Nature of the data set: Measurement of molecular interactions using surface plasmon resonance (SPR), Biacore T200. The note with it: 25° C., immobilized CRBN truncate, upper limit of measurement 200 μM. The format is binding. The procedure, abridged:
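Compound injections used 60 s association and 120 s dissociation in HEPES pH 7.5 buffer (150 mM NaCl, 1 mM TCEP, 0.005% Tween 20, 2% DMSO). The ligand was CRBN truncate 318-426 bearing a C-terminal Avi-tag, immobilised via streptavidin on an SA sensor chip.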

[2] abbreviates: 0 h, pH 7.4, 37° C., CH3CN/0.1 M N-methylmorpholine aqueous solution.

pKd: −log10 of the molar value. Bounds are passed on as bounds.

CRBN truncate (318-426), sequence (Q96SW2 318-426): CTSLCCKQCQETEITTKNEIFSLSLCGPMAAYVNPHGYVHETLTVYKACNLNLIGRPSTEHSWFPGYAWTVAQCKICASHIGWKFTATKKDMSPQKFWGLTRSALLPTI

Turning to `Cn1c(=O)n([C@@H]2CCCC(=O)NC2=O)c2cccc(I)c21` (stereo in doubt) [Example 211-1, 3-(4-Iodo-3-methyl-2-oxobenzimidazol-1-yl) azepane-2,7-dione], the “ee Normalized to 100 at 0 min” value in data set [1] (0 h, pH 7.4, 37° C.) is reported as 100; in data set [1] (24 h, pH 7.4, 37° C.), 88.21; in data set [1] (48 h, pH 7.4, 37° C.), 78.16; in data set [1] (72 h, pH 7.4, 37° C.) it was 70.46; in data set [1] (167 h, pH 7.4, 37° C.), 42.07. Besides, the ee in data set [1] (setting [2]) is on record as 99.43; in data set [1] (24 h, pH 7.4, 37° C.), 87.71; in data set [1] (48 h, pH 7.4, 37° C.), 77.71; in data set [1] (72 h, pH 7.4, 37° C.), 70.06; in data set [1] (167 h, pH 7.4, 37° C.), 41.83; in data set [1] (Initial), 99.44.

With `O=C1CC[C@H](N2C(=O)c3ccccc3C2=O)C(=O)N1` [(S) Thalidomide, (S)-thalidomide], the “ee Normalized to 100 at 0 min” value in data set [1] (0 h, pH 7.4, 37° C.) was found to be 100; in data set [1] (24 h, pH 7.4, 37° C.) it was 79.59; in data set [1] (48 h, pH 7.4, 37° C.) it was 63.24; in data set [1] (72 h, pH 7.4, 37° C.) it was 50.23; in data set [1] (167 h, pH 7.4, 37° C.) it was 20.16. The ee in data set [1] (setting [2]) worked out at 92.11; in data set [1] (24 h, pH 7.4, 37° C.) it was 73.31; in data set [1] (48 h, pH 7.4, 37° C.), 58.25; in data set [1] (72 h, pH 7.4, 37° C.), 46.27; in data set [1] (167 h, pH 7.4, 37° C.), 18.57; in data set [1] (Initial), 92.16.

In the case of `Cn1c(=O)n([C@@H]2CCC(=O)NC2=O)c2cccc(I)c21` [Compound A′], the “ee Normalized to 100 at 0 min” value in data set [1] (0 h, pH 7.4, 37° C.) was found to be 100; in data set [1] (24 h, pH 7.4, 37° C.), 80.94; in data set [1] (48 h, pH 7.4, 37° C.), 65.4; in data set [1] (72 h, pH 7.4, 37° C.) it was 52.76; in data set [1] (167 h, pH 7.4, 37° C.), 22.41. Also, the ee in data set [1] (setting [2]) was found to be 96.08; in data set [1] (24 h, pH 7.4, 37° C.), 77.77; in data set [1] (48 h, pH 7.4, 37° C.), 62.84; in data set [1] (72 h, pH 7.4, 37° C.), 50.69; in data set [1] (167 h, pH 7.4, 37° C.), 21.53; in data set [1] (Initial) it was 95.39.

With `C[C@@H]1Cc2c([nH]c3ccccc23)[C@@H](c2cnc(N3CCC(CN(C)CCCCCCCc4ccc(C(=O)N5CCC6(CCCC(=O)NC6=O)C5)cc4)CC3)nc2)N1CC(C)(C)F` (stereo partly drawn) [Example 361-2, 2-[4-[7-[[1-[5-[(1R,3R)-2-(2-fluoro-2-methyl-propyl)-3-methyl-1,3,4,9-tetrahydropyrido[3,4-b]indol-1-yl]pyrimidin-2-yl]-4-piperidyl]methyl-methyl-amino]heptyl]benzoyl]-2,7-diazaspiro[4.6]undecane-6,8-dione], the pKd (as a rule, the negative decadic logarithm of the Kd, by convention in mol/L) on CRBN truncate (318-426) is more than 4.30.
